Values joined by “and” are separate entries in the source; they are usually repeats but may differ in a detail not shown here. Equal entries are not always repeated. Where two headings read alike, the source gives them in different places.
System: Escherichia coli ATCC 25922 (GN_001)
Assay: Synergy of cannabidiol with cell-wall disrupting agent (CBD MIC in combination, FICI)
Type: cell-based
Settings: for FICI: calculated using MIC of 256 μg/mL for cannabidiol; for MIC: Escherichia coli
Method: The compounds were stored short term at 4° C.
Analysis was performed using Microsoft Excel.

C=C(C)C1CCC(C)=CC1c1c(O)cc(CCCCC)cc1O (stereo not shown) [Cannabidiol, 2-[3-methyl-6-(1-methylethenyl)-2-cyclohexen-1-yl]-5-pentyl-1,3-benzenediol]
CBD MIC with Cefuroxime (Cefuroxime at 4 μg/mL, Escherichia coli ATCC 25922): 0.001 µg/mL
CBD MIC with Cefuroxime (Cefuroxime at 8 μg/mL, Escherichia coli ATCC 25922): 0.001 µg/mL
CBD MIC with Colistin (Colistin at 0.06 μg/mL (0.062 in Table 56), Escherichia coli ATCC 25922): 8 µg/mL
CBD MIC with Colistin (Colistin at 0.25 μg/mL, Escherichia coli ATCC 25922): 1 µg/mL
CBD MIC with Colistin (Colistin at 0.5 μg/mL, Escherichia coli ATCC 25922): 0.125 µg/mL
CBD MIC with Colistin (Colistin at […], Escherichia coli ATCC 25922): 2 µg/mL
FICI range (Escherichia coli ATCC 25922, CBD with FADDI-287, MIC table (Table 95), listed as CBD): 0.5-16 and 0.25-8
FICI range (Escherichia coli ATCC 25922, CBD with FADDI-287, Synergy table (Table 97), listed as CBD): 0.5 and 0.25-0.5
FICI range (Escherichia coli ATCC 25922, CBD with MCC_8980, MIC table (Table 99)): 0.03-1.02
FICI range (Escherichia coli ATCC 25922, CBD with MCC_8980, Synergy table (Table 101), listed as CBD): 0.03-0.26 and 0.03-0.25
FICI range (Escherichia coli ATCC 25922, CBD with Spero Potentiator SPR741, MIC table (Table 91), listed as CBD): 0.02-1 and 0.04-1.02 and 0.02-1.01
FICI range (Escherichia coli ATCC 25922, CBD with Spero Potentiator SPR741, Synergy table (Table 93), listed as CBD): 0.02-0.25 and 0.04-0.25
CBD MIC with FADDI-287 (Escherichia coli ATCC 25922, FADDI-287 at […], listed as CBD): 1 µg/mL
CBD MIC with MCC_8980 (Escherichia coli ATCC 25922, MCC_8980 at 4 μg/mL, listed as CBD): 16 µg/mL
CBD MIC with MCC_8980 (Escherichia coli ATCC 25922, MCC_8980 at 16 μg/mL, listed as CBD): 1 µg/mL
CBD MIC with Spero SPR206 (Escherichia coli ATCC 25922, Spero SPR206 at 4 μg/mL, listed as CBD): 0.0019 µg/mL
FICI (Escherichia coli ATCC 25922, cannabidiol with FADDI-287 at 0.5 μg/mL): 2
FICI (Escherichia coli ATCC 25922, cannabidiol with FADDI-287 at 1 μg/mL): 4 and 2
FICI (Escherichia coli ATCC 25922, cannabidiol with FADDI-287 at 2 μg/mL): 8 and 4
FICI (Escherichia coli ATCC 25922, cannabidiol with FADDI-287 at 4 μg/mL): 16 and 8
FICI (Escherichia coli ATCC 25922, cannabidiol with FADDI-287 at […]): 0.502
FICI (Escherichia coli ATCC 25922, cannabidiol with MCC_8980 at 0.5 μg/mL): 1.008
FICI (Escherichia coli ATCC 25922, cannabidiol with MCC_8980 at 1 μg/mL): 1.016
FICI (Escherichia coli ATCC 25922, cannabidiol with MCC_8980 at 2 μg/mL): 0.03125
FICI (Escherichia coli ATCC 25922, cannabidiol with MCC_8980 at 4 μg/mL): 0.1875
FICI (Escherichia coli ATCC 25922, cannabidiol with MCC_8980 at 4 μg/mL, listed as cannabidiol): 0.125
FICI (Escherichia coli ATCC 25922, cannabidiol with MCC_8980 at 8 μg/mL): 0.1328
FICI (Escherichia coli ATCC 25922, cannabidiol with SPR741 at 0.5 μg/mL): 1.008 and 1.004
FICI (Escherichia coli ATCC 25922, cannabidiol with SPR741 at 1 μg/mL): 1.016
FICI (Escherichia coli ATCC 25922, cannabidiol with SPR741 at 16 μg/mL): 0.127
MIC (ATCC25922, Escherichia coli ATCC 25922, FADDI-287 at 0.25 μg/mL, read-out: CBD MIC with FADDI-287): 0.062 µg/mL
MIC (ATCC25922, Escherichia coli ATCC 25922, FADDI-287 at 0.5 μg/mL, read-out: CBD MIC with FADDI-287): 0.001 µg/mL
MIC (ATCC25922, Escherichia coli ATCC 25922, FADDI-287 at 1 μg/mL, read-out: CBD MIC with FADDI-287): 0.001 µg/mL
MIC (ATCC25922, Escherichia coli ATCC 25922, FADDI-287 at 2 μg/mL, read-out: CBD MIC with FADDI-287): 0.001 µg/mL
MIC (ATCC25922, Escherichia coli ATCC 25922, FADDI-287 at 4 μg/mL, read-out: CBD MIC with FADDI-287): 0.001 µg/mL
MIC (ATCC25922, Escherichia coli ATCC 25922, MCC_8980 at 2 μg/mL, read-out: CBD MIC with MCC_8980): 0.001 µg/mL
MIC (ATCC25922, Escherichia coli ATCC 25922, MCC_8980 at 4 μg/mL, read-out: CBD MIC with MCC_8980): 32 µg/mL
MIC (ATCC25922, Escherichia coli ATCC 25922, MCC_8980 at 8 μg/mL, read-out: CBD MIC with MCC_8980): 2 µg/mL
MIC (ATCC25922, Escherichia coli ATCC 25922, MCC_8980 at 16 μg/mL, read-out: CBD MIC with MCC_8980): 2 µg/mL
MIC (ATCC25922, Escherichia coli ATCC 25922, Spero SPR206 at 0.007 μg/mL, read-out: CBD MIC with Spero SPR206): ≥ 32 µg/mL
MIC (ATCC25922, Escherichia coli ATCC 25922, Spero SPR206 at 0.015 μg/mL, read-out: CBD MIC with Spero SPR206): ≥ 32 µg/mL
MIC (ATCC25922, Escherichia coli ATCC 25922, Spero SPR206 at 0.062 μg/mL, read-out: CBD MIC with Spero SPR206): 1 µg/mL
MIC (ATCC25922, Escherichia coli ATCC 25922, Spero SPR206 at 4 μg/mL, read-out: CBD MIC with Spero SPR206): 0.001 µg/mL
MIC (ATCC25922, MCC_6442 at 2 μg/mL, Escherichia coli ATCC 25922, read-out: CBD MIC with MCC_6442): 0.0039 µg/mL
MIC (ATCC25922, MCC_6442 at 4 μg/mL, Escherichia coli ATCC 25922, read-out: CBD MIC with MCC_6442): 0.001 µg/mL
MIC (ATCC25922, Octapeptin C4 at 4 μg/mL, read-out: CBD MIC with Octapeptin C4): 0.062 µg/mL
MIC (ATCC25922, Spero SPR206 at 0.007 μg/mL, 2nd of 3 experiments, read-out: CBD MIC with Spero SPR206): > 256 µg/mL
MIC (ATCC25922, Spero SPR206 at 0.015 μg/mL, 2nd of 3 experiments, read-out: CBD MIC with Spero SPR206): > 256 µg/mL
MIC (ATCC25922, Spero SPR206 at 0.062 μg/mL, 2nd of 3 experiments, read-out: CBD MIC with Spero SPR206): 1 µg/mL
MIC (ATCC25922, Spero SPR206 at 0.25 μg/mL, 1st of 3 experiments, read-out: CBD MIC with Spero SPR206): 0.001 µg/mL
MIC (ATCC25922, Spero SPR206 at 0.25 μg/mL, 2nd of 3 experiments, read-out: CBD MIC with Spero SPR206): 1 µg/mL
MIC (ATCC25922, Spero SPR206 at 0.25 μg/mL, 3rd of 3 experiments, read-out: CBD MIC with Spero SPR206): > 256 µg/mL
MIC (ATCC25922, Spero SPR206 at 0.5 μg/mL, 1st of 3 experiments, read-out: CBD MIC with Spero SPR206): 0.001 µg/mL
MIC (ATCC25922, Spero SPR206 at 0.5 μg/mL, 3rd of 3 experiments, read-out: CBD MIC with Spero SPR206): 2 µg/mL
MIC (ATCC25922, Spero SPR206 at 1 μg/mL, 1st of 3 experiments, read-out: CBD MIC with Spero SPR206): 0.001 µg/mL
MIC (ATCC25922, Spero SPR206 at 1 μg/mL, 3rd of 3 experiments, read-out: CBD MIC with Spero SPR206): 0.5 µg/mL
MIC (ATCC25922, Spero SPR206 at 2 μg/mL, 1st of 3 experiments, read-out: CBD MIC with Spero SPR206): 0.001 µg/mL
MIC (ATCC25922, Spero SPR206 at 2 μg/mL, 3rd of 3 experiments, read-out: CBD MIC with Spero SPR206): 0.25 µg/mL
MIC (ATCC25922, Spero SPR206 at 4 μg/mL, 1st of 3 experiments, read-out: CBD MIC with Spero SPR206): 0.001 µg/mL
MIC (ATCC25922, Spero SPR206 at 4 μg/mL, 3rd of 3 experiments, read-out: CBD MIC with Spero SPR206): 0.001 µg/mL
activity of cannabidiol in combination with Polymyxin B (Example 1): effective
Average FICI score (Example 1, GN_001, cannabidiol + MCC_006636 (Polymyxin B)): 0.15
Synergy (Example 1, GN_001, cannabidiol + MCC_006636 (Polymyxin B), synergy when FICI≤0.5): YES
activity of cannabidiol combined with colistin (Example 3): effective
CBD MIC with Colistin at concentration 0.015625 μg/mL (Example 3, GN_001): >256 µg/mL
CBD MIC with Colistin at concentration 0.03125 μg/mL (Example 3, GN_001): >256 µg/mL
CBD MIC with Colistin at concentration 0.0625 μg/mL (Example 3, GN_001): 8 µg/mL
CBD MIC with Colistin at concentration 0.25 μg/mL (Example 3, GN_001): 1 µg/mL
CBD MIC with Colistin at concentration 0.5 μg/mL (Example 3, GN_001): 0.125 µg/mL
CBD MIC with Colistin at concentration […] (Example 3, GN_001): 2 µg/mL
activity of cannabidiol combined with Polymyxin B (Example 6): effective
CBD MIC with Polymyxin B at concentration 0.015625 μg/mL (Example 6, GN_001): >256 µg/mL
CBD MIC with Polymyxin B at concentration 0.03125 μg/mL (Example 6, GN_001): >256 µg/mL
CBD MIC with Polymyxin B at concentration 0.0625 μg/mL (Example 6, GN_001): >256 µg/mL
CBD MIC with Polymyxin B at concentration 0.5 μg/mL (Example 6, GN_001): 0.0009766 µg/mL
CBD MIC with Polymyxin B at concentration […] (Example 6, GN_001): >256 µg/mL
CBD MIC with Polymyxin B at concentration 0.25 μg/mL (Example 6, GN_001, listed as CBD): 2 µg/mL and 4 µg/mL
activity of cannabidiol in combination with octapeptin MCC_006442 (Example 7): slightly effective
activity of cannabidiol combined with ticarcillin (Example 13): effective
activity of cannabidiol combined with colistin (Example 14): effective
activity of cannabidiol combined with octapeptin MCC_006442 (Example 15): effective
activity of cannabidiol combined with cefotetan (Example 17): effective
activity of cannabidiol combined with aztreonam (Example 18): effective
activity of cannabidiol combined with cefepime (Example 19): effective
activity of cannabidiol combined with octapeptin C4 (Example 21): effective
activity of cannabidiol in combination with Spero Potentiator SPR741 (Example 22): effective
activity of cannabidiol in combination with Spero SPR206 (Example 22): effective
activity of cannabidiol in combination with octapeptin FADDI-287 (Example 23): effective
activity of cannabidiol in combination with MCC_8980 (Example 24): effective
CBD MIC with MCC_6442 (MCC_6442 at 2 μg/mL, Escherichia coli ATCC 25922, listed as CBD): 0.0078 µg/mL
CBD MIC with Spero SPR206 (Spero SPR206 at 1 μg/mL, 3rd of 3 experiments, listed as CBD): 0.25 µg/mL
CBD MIC with Spero SPR206 (Spero SPR206 at 4 μg/mL, 3rd of 3 experiments, listed as CBD): 0.0019 µg/mL
CBD MIC with Ticarcillin (Ticarcillin at 4 μg/mL, Escherichia coli ATCC 25922): 0.125 µg/mL
CBD MIC with Ticarcillin (Ticarcillin at 8 μg/mL, Escherichia coli ATCC 25922): 0.001 µg/mL

From US20230013669A1, “Antibacterial Treatment Using a Cannabinoid and an Active Agent” (priority 2019, published 2023)
